Data on 16 molecules can be found in US7928107B2, “Quinazolines useful as modulators of ion channels” (Vertex Pharmaceuticals Incorporated, priority 2004, dated 2011).

For this test, the target named is NaV 1.8 channel (Homo sapiens, UniProt Q9Y5Y9). Kind of test: Activity against NaV 1.8 channel (optical membrane potential assay). In kind it is cell-based. The protocol:
Compounds of the invention are useful as antagonists of voltage-gated sodium ion channels. Antagonist properties of test compounds were assessed as follows. Cells expressing the NaV of interest were placed into microtiter plates. After an incubation period, the cells were stained with fluorescent dyes sensitive to the transmembrane potential. The test compounds were added to the microtiter plate. The cells were stimulated with either a chemical or electrical means to evoke a NaV dependent membrane potential change from unblocked channels, which was detected and measured with trans-membrane potential-sensitive dyes. Antagonists were detected as a decreased membrane potential response to the stimulus. The optical membrane potential assay utilized voltage-sensitive FRET sensors described by Gonzalez and Tsien (See, Gonzalez, J. E. and R. Y. Tsien (1995) “Voltage sensing by fluorescence resonance energy transfer in single cells” Biophys J 69(4): 1272-80, and Gonzalez, J. E. and R. Y. Tsien (1997) “Improved indicators of cell membrane potential that use fluorescence resonance energy transfer” Chem Biol 4(4): 269-77) in combination with instrumentation for measuring fluorescence changes such as the Voltage/Ion Probe Reader (VIPR®) (See, Gonzalez, J. E., K. Oades, et al. (1999) “Cell-based assays and instrumentation for screening ion-channel targets” Drug Discov Today 4(9): 431-439).
24 hours before the assay on VIPR, CHO cells endogenously expressing a NaV1.2 type voltage-gated NaV are seeded in 96-well poly-lysine coated plates at 60,000 cells per well. Other subtypes are performed in an analogous mode in a cell line expressing the NaV of interest. • 1) On the day of the assay, medium is aspirated and cells are washed twice with 225 μL of Bath Solution #2 (BS#2). • 2) A 15 uM CC2-DMPE solution is prepared by mixing 5 mM coumarin stock solution with 10% Pluronic 127 1:1 and then dissolving the mix in the appropriate volume of BS#2. • 3) After bath solution is removed from the 96-well plates, the cells are loaded with 80 μL of the CC2-DMPE solution. Plates are incubated in the dark for 30 minutes at room temperature. • 4) While the cells are being stained with coumarin, a […] solution in BS#2 is prepared. In addition to DiSBAC2(3), this solution should contain 0.75 mM ABSCl and […] (prepared from 10 mM EtOH stock, Sigma #V-5754). • 5) After 30 minutes, CC2-DMPE is removed and the cells are washed twice with 225 μL of BS#2. As before, the residual volume should be 40 μL. • 6) Upon removing the bath, the cells are loaded with 80 μL of the DiSBAC2(3) solution, after which test compound, dissolved in DMSO, is added to achieve the desired test concentration to each well from the drug addition plate and mixed thoroughly. The volume in the well should be roughly 121 μL. The cells are then incubated for 20-30 minutes. • 7) Once the incubation is complete, the cells are ready to be assayed on VIPR® with a sodium add back protocol. 120 μL of Bath solution #1 is added to stimulate the NaV dependent depolarization. […] was used as an antagonist positive control for block of the NaV channel.
Data are analyzed and reported as normalized ratios of background-subtracted emission intensities measured in the 460 nm and 580 nm channels. Background intensities are then subtracted from each assay channel. Background intensities are obtained by measuring the emission intensities during the same time periods from identically treated assay wells in which there are no cells. The response as a function of time is then reported as the ratios obtained using the following formula: […]
The data is further reduced by calculating the initial (Ri) and final (Rf) ratios. These are the average ratio values during part or all of the pre-stimulation period, and during sample points during the stimulation period. The response to the stimulus R=Rf/Ri is then calculated. […]

Bounds are passed on as bounds.

NaV 1.8 channel, sequence (Q9Y5Y9 whole entry): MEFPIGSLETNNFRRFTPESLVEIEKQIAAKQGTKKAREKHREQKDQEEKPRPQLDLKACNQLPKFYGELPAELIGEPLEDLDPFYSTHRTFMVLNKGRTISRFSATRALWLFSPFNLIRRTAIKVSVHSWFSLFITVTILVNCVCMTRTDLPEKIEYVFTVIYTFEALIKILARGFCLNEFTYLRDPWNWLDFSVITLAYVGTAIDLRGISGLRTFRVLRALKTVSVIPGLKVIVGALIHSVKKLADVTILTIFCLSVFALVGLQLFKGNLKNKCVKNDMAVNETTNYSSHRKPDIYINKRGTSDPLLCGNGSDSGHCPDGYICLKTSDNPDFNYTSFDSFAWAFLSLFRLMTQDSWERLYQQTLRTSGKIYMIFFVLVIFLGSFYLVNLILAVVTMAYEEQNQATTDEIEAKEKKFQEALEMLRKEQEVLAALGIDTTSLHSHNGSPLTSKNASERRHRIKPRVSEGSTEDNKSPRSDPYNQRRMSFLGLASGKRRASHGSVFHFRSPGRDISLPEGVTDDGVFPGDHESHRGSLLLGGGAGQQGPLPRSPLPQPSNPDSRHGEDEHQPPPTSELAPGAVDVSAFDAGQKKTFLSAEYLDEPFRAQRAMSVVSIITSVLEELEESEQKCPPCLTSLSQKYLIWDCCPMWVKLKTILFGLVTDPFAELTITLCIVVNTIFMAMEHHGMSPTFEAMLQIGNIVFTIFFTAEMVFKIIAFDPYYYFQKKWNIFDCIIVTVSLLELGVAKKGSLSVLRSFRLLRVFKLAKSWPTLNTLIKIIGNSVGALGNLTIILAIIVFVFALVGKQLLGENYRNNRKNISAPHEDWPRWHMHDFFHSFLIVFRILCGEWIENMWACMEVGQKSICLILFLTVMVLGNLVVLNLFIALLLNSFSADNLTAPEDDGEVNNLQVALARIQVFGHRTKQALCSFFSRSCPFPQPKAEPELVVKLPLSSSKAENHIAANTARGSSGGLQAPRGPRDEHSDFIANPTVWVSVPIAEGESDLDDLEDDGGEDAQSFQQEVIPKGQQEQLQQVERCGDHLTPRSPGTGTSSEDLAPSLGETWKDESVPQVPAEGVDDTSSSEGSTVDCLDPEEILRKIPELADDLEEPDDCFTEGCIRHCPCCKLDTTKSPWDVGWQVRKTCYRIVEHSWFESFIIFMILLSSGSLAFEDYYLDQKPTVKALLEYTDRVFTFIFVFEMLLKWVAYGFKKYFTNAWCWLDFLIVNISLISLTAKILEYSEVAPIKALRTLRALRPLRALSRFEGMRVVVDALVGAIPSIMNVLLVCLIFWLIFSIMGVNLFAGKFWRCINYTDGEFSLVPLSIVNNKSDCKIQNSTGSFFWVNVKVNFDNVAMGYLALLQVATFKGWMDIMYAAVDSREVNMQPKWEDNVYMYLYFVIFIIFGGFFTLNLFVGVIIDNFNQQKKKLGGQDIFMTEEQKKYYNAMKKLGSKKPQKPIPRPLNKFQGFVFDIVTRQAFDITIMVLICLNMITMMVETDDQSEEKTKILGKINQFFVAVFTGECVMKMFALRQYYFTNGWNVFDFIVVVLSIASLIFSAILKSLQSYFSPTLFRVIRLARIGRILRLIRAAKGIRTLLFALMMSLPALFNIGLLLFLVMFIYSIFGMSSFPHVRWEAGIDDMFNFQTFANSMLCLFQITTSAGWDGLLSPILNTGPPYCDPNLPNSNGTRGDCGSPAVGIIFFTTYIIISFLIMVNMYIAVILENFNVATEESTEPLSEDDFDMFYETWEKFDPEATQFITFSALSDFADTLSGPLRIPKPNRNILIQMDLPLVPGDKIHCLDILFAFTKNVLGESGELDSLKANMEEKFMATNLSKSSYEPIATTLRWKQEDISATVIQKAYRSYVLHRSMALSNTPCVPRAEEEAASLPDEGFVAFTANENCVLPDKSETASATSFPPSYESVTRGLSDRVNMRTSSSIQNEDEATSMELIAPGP

With `Cc1ccc2c(N3CCC[C@@H](CNC(=O)O[C@H]4CCOC4)C3)nc(-c3ccccc3O)nc2c1` [Example 215, (S)-Tetrahydrofuran-3-yl ((S)-1-(2-(2-hydroxyphenyl)-7-methylquinazolin-4-yl)piperidin-3-yl)methylcarbamate], the IC50 was more than 10 µM.

Take `Cc1ccc2c(N3CCN(C(=O)[C@H](O)CC(C)(C)C)CC3)nc(-c3ccccc3O)nc2c1` [Example 101, (R)-2-Hydroxy-1-(4-(2-(2-hydroxyphenyl)-7-methylquinazolin-4-yl)piperazin-1-yl)-4,4-dimethylpentan-1-one]: the IC50 is less than 2 µM.

`CCOC(=O)C(=O)N1CCN(c2nc(-c3ccccc3O)nc3cc(C)ccc23)CC1` [Example 195]: the IC50 is less than 2 µM.

Turning to `O=C(N[C@@H]1CCN(c2nc(-c3ccccc3O)nc3ccc(F)cc23)C1)O[C@H]1CCOC1` [Example 335, (S)-Tetrahydrofuran-3-yl (R)-1-(6-fluoro-2-(2-hydroxyphenyl)quinazolin-4-yl)pyrrolidin-3-ylcarbamate], the IC50 fell in the range of 2 to 10 µM.

For the molecule `Cc1ccc2c(N3CC[C@@H](NC(=O)c4cccnc4)C3)nc(-c3c(O)cccc3F)nc2c1` [Example 352, N—((R)-1-(2-(2-Fluoro-6-hydroxyphenyl)-7-methylquinazolin-4-yl)pyrrolidin-3-yl)nicotinamide], the IC50 is more than 10 µM.

With `O=C(NC[C@@H]1CCN(c2nc(-c3ccccc3O)nc3ccc(F)cc23)C1)C1CC1` [Example 357, N—(((S)-1-(6-Fluoro-2-(2-hydroxyphenyl)quinazolin-4-yl)pyrrolidin-3-yl)methyl)cyclopropanecarboxamide], the IC50 was more than 10 µM.

Turning to `Cc1ccc2c(N3CCC(CNC(=O)C(O)C(C)C)CC3)nc(-c3ccccc3O)nc2c1` (stereo not shown) [Example 266], the IC50 was in the range of 2 to 10 µM.

Take `Cc1ccc2c(N3CCCC(C(=O)NCc4cccnc4)C3)nc(-c3ccccc3O)nc2c1` (stereo not shown) [Example 201, 1-(2-(2-Hydroxyphenyl)-7-methylquinazolin-4-yl)-N-((pyridin-3-yl)methyl)piperidine-3-carboxamide]: the half-maximal inhibitory concentration (IC50) lay within 2 to 10 µM.

In the case of `Cc1ccc2c(N3CCC(NC(=O)O[C@@H]4CCOC4)CC3)nc(-c3ccccc3O)nc2c1` [Example 272], the IC50 lay within 2 to 10 µM.

Consider `Cc1ccc2c(N3CCN(C(=O)C(O)CC(C)C)CC3)nc(-c3ccccc3O)nc2c1` (stereo not shown) [Example 180], for which the IC50 lay within 2 to 10 µM.

On to `Cc1ccc2c(N3CC[C@@H](NC(=O)CCc4ccccn4)C3)nc(-c3ccccc3O)nc2c1` [Example 318, N—((R)-1-(2-(2-Hydroxyphenyl)-7-methylquinazolin-4-yl)pyrrolidin-3-yl)-3-(pyridin-2-yl)propanamide], for which the IC50 was more than 10 µM.

Consider `Cc1ccc2c(N3CCC[C@@H](NC(=O)O[C@@H]4CCOC4)C3)nc(-c3ccccc3O)nc2c1` [Example 207, (R)-Tetrahydrofuran-3-yl (R)-1-(2-(2-hydroxyphenyl)-7-methylquinazolin-4-yl)piperidin-3-ylcarbamate], for which the IC50 is less than 2 µM.

In the case of `Cc1ccc2c(N3CC[C@@H](NC(=O)c4cccc(N(C)C)c4)C3)nc(-c3ccccc3O)nc2c1` [Example 342, 3-(Dimethylamino)-N—((R)-1-(2-(2-hydroxyphenyl)-7-methylquinazolin-4-yl)pyrrolidin-3-yl)benzamide], the IC50 is more than 10 µM.

With `Cc1ccc2c(N3CCN(C(=O)C(O)CC(F)(F)F)CC3)nc(-c3ccccc3O)nc2c1` (stereo not shown) [Example 112, 4,4,4-Trifluoro-2-hydroxy-1-(4-(2-(2-hydroxyphenyl)-7-methylquinazolin-4-yl)piperazin-1-yl)butan-1-one], the IC50 was more than 10 µM.

`O=C(N[C@@H]1CCN(c2nc(-c3ccccc3O)nc3ccc(F)cc23)C1)O[C@@H]1CCOC1` [Example 337, (R)-Tetrahydrofuran-3-yl (R)-1-(6-fluoro-2-(2-hydroxyphenyl)quinazolin-4-yl)pyrrolidin-3-ylcarbamate]: the IC50 was 2 to 10 µM.

In the case of `Cc1ccc2c(N3CCN(C(=O)O[C@H]4COC5OCC[C@@H]54)CC3)nc(-c3ccccc3O)nc2c1` (stereo partly shown) [Example 190], the IC50 was 2 to 10 µM.
